Assay [1] has as its system mutant versus wild-type cell lines of the 44 cell line panel. Kind of assay: Anova analysis of cell panel IC50s against cancer gene changes; standardized mean difference (targetedness). The note with it: BRAF oncogene targeting, Figure 5D.
Assay [2] concerns the target panel of more than 300 wild-type and mutant kinases (313 kinase panel) (Homo sapiens, UniProt O75914). Kind of assay: Kinase profiling in a biochemical assay panel (mobility shift assays and ELISA), %-inhibition at 1 μM; selectivity entropy. The note with it: kinase PAK3; 1 μM.
The target of assay [3] is T1, panel of more than 300 wild-type and mutant kinases (313 kinase panel) (Homo sapiens, UniProt O00444).
T1 sequence (O00444 1-970): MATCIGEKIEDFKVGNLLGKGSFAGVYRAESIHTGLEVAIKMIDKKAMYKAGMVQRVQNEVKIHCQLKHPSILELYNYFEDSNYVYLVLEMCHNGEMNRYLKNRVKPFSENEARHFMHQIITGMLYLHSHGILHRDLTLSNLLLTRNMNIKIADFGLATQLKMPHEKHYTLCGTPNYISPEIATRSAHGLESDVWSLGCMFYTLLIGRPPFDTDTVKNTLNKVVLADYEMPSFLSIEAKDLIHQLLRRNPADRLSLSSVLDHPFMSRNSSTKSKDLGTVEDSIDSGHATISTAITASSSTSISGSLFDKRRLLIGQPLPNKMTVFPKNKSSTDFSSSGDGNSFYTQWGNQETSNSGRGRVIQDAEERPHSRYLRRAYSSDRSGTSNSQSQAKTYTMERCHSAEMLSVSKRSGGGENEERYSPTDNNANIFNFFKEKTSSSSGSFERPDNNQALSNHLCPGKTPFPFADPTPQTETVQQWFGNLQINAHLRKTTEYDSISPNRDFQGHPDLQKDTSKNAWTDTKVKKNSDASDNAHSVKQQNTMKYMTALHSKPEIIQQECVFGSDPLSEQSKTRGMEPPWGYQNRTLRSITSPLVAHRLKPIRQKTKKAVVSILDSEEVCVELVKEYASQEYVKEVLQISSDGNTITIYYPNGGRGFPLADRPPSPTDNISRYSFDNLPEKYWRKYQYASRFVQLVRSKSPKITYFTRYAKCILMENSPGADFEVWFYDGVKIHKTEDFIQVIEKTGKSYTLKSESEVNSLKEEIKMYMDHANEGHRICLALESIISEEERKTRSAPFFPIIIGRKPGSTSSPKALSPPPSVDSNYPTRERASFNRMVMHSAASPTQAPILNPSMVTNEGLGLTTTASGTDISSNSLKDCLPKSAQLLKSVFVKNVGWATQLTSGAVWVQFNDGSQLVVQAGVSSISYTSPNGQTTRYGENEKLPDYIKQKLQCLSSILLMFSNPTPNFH
The description is as above.

A further assay relates to FKBP12. Conditions: value indicates binding interaction with FKBP12; read-out: IC50 (nM) on relevant targets: mTOR; cited from earlier work.
In assay [4] the target is panel of more than 300 wild-type and mutant kinases (313 kinase panel) (Homo sapiens, UniProt P00519, T315I). Kind of assay: Kinase profiling in a biochemical assay panel (mobility shift assays and ELISA), %-inhibition at 1 μM; selectivity entropy.
Setting [5] is: kinase ABL(T315I), 1 μM compound.

Chain of panel of more than 300 wild-type and mutant kinases (313 kinase panel) (Homo sapiens, UniProt O75914) (O75914 whole entry, change not shown): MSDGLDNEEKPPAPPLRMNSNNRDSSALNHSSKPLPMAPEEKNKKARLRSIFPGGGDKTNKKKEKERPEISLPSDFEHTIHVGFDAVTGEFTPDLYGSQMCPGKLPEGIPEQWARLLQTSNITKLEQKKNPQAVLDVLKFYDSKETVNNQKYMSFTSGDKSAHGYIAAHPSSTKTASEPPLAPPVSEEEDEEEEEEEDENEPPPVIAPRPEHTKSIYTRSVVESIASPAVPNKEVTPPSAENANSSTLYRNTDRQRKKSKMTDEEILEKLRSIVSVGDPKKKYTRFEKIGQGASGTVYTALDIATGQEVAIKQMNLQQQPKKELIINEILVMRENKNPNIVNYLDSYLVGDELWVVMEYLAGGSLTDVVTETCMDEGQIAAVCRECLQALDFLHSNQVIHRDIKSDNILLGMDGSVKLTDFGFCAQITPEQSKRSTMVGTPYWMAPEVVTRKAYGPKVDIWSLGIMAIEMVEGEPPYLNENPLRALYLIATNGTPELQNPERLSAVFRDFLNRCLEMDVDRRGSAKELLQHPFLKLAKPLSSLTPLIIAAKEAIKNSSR

For `CC(C)(C)c1nc(-c2cccc(NS(=O)(=O)c3c(F)cccc3F)c2F)c(-c2ccnc(N)n2)s1` [dabrafenib], the “targetedness (standardized logIC50 difference)” value in assay [1] was -4.96. `Cc1nc(Nc2ncc(C(=O)Nc3c(C)cccc3Cl)s2)cc(N2CCN(CCO)CC2)n1` [dasatinib]: the “%-inhibition of PAK3” value in assay [2] is recorded as -1.28%. Consider `C#Cc1cccc(Nc2ncnc3cc(OCCOC)c(OCCOC)cc23)c1` [erlotinib], for which the “%-inhibition of PLK4” value in assay [3] (1 µM) turned out to be 9%.

With `CO[C@H]1C[C@@H]2CC[C@@H](C)[C@@](O)(O2)C(=O)C(=O)N2CCCC[C@H]2C(=O)O[C@H]([C@H](C)C[C@@H]2CC[C@@H](OCCO)[C@H](OC)C2)CC(=O)[C@H](C)/C=C(\C)[C@@H](O)[C@@H](OC)C(=O)[C@H](C)C[C@H](C)/C=C/C=C/C=C/1C` [everolimus], the half-inhibitory concentration (IC50) in the assay on FKBP12 was around 2 nM. Regarding `O=S(=O)(c1cccc2cnccc12)N1CCCNCC1` [fasudil], the “%-inhibition, ABL(T315I)” value in assay [4] (setting [5]) was 1.7%.

Regarding `CS(=O)(=O)CCNCc1ccc(-c2ccc3ncnc(Nc4ccc(OCc5cccc(F)c5)c(Cl)c4)c3c2)o1` [lapatinib], the “%-inhibition of PAK3” value in assay [2] stood at 4.27%. Further, the “%-inhibition, ABL(T315I)” value in assay [4] (setting [5]) is 9%. In addition, in assay [3] (1 µM), the “%-inhibition of PLK4” value is on record as -4.47%. On to `Cc1cn(-c2cc(NC(=O)c3ccc(C)c(Nc4nccc(-c5cccnc5)n4)c3)cc(C(F)(F)F)c2)cn1` [nilotinib], for which the “%-inhibition of PAK3” value in assay [2] is reported as -4%. Besides, the “%-inhibition of PLK4” value in assay [3] (kinase PLK4, 1 μM) is reported as 21%. Turning to `Cc1ccc(Nc2nccc(N(C)c3ccc4c(C)n(C)nc4c3)n2)cc1S(N)(=O)=O` [pazopanib], the “%-inhibition of PAK3” value in assay [2] came to 6%. Also, the “%-inhibition of PLK4” value in assay [3] (kinase PLK4, 1 μM) came to 72%. With `CNC(=O)c1cc(Oc2ccc(NC(=O)Nc3ccc(Cl)c(C(F)(F)F)c3)c(F)c2)ccn1` [regorafenib], the “%-inhibition, ABL(T315I)” value in assay [4] (setting [5]) is recorded as 66%. For `N#CC[C@H](C1CCCC1)n1cc(-c2ncnc3[nH]ccc23)cn1` [ruxolitinib], the “%-inhibition, ABL(T315I)” value in assay [4] (1 µM) turned out to be 4%. For the molecule `CCN(CC)CCNC(=O)c1c(C)[nH]c(/C=C2\C(=O)Nc3ccc(F)cc32)c1C` [sunitinib], in assay [3] (kinase PLK4, 1 μM), the “%-inhibition of PLK4” value turned out to be 58%. Take `CO[C@H]1C[C@@H]2CC[C@@H](C)[C@@](O)(O2)C(=O)C(=O)N2CCCC[C@H]2C(=O)O[C@H]([C@H](C)C[C@@H]2CC[C@@H](OC(=O)C(C)(CO)CO)[C@H](OC)C2)CC(=O)[C@H](C)/C=C(\C)[C@@H](O)[C@@H](OC)C(=O)[C@H](C)C[C@H](C)/C=C/C=C/C=C/1C` [temsirolimus]: the half-maximal inhibitory concentration (IC50) in the assay with FKBP12 is around 2 nM.

With `CCCS(=O)(=O)Nc1ccc(F)c(C(=O)c2c[nH]c3ncc(-c4ccc(Cl)cc4)cc23)c1F` [vemurafenib], in assay [4] (setting [5]), the “%-inhibition, ABL(T315I)” value was 7%.

The record behind these values is PMC3961306, “Comparison of the Cancer Gene Targeting and Biochemical Selectivities of All Targeted Kinase Inhibitors Approved for Clinical Use” (PLoS ONE, 2014).
